Measurements from patent US20040259823A1, “Cationic amphiphiles as transfection vehicles” (priority 2001, published 2004).

Legend:
Assay type in all cases: cell-based
COS-7 and HepG2 cells [1] = experiment: Transfection with pCMV GFP plasmid, % GFP positive cells by FACS (cell line not given); conditions: cell line and helper lipid not given
Procedure: (§1) Transfections were carried out following standard protocols as is described in EP 0755924. In numerous publications variations of transfection protocols are given. A person acquainted with the field of non-viral transfections, in particular transfections using cationic amphiphiles will be able to use the cationic amphiphiles of the invention in transfection methods known per se. In standard experiments COS-7 cells are transfected with plasmid DNA containing the β-galactosidase reporter gene. Upon successful transfection the cell produces the enzyme β-galactosidase whose activity can be easily measured. Other plasmids comprising alternative reporter genes such as the gene encoding Green Fluorescent Protein or Chloroamphenicol Acetyl Transferase are suited as well. For analyzing stable transfection a plasmid containing the neomycin resistance gene can be used. Toxicity of the cationic amphiphiles towards the cells can be monitored qualitatively and quantitatively by visual inspection of the cells and by a protein determination.
(§2) A solution of cationic amphiphile in a 50/50 molar ratio with DOPE, DOPC or cholesterol in chloroform was dried under a stream of nitrogen. The residual solvent was removed under vacuum. The lipid film was hydrated in water at room temperature and sonicated to clarity in a bath sonicator immediately before use.
(§3) A 4.7 kb pair plasmid containing the GFP reporter gene under control of the cytomegalovirus immediate early gene promoter/enhancer (pCMV GFP).DNA was isolated from E. coli using a Qiagen Plasmid Kit (QIAGEN Inc, USA). The plasmid concentration was determined by measuring the absoption at 260 nm using the relation 1.0 OD=50 μg/ml. The OD260/OD280 value was 1.95.
(§4) COS-7 and HepG2 cells were cultured in Dulbecco's Modified Eagle Medium (DMEM Gibco The Netherlands) containing 7% of fetal calf serum, 2 mM L-Glutamine, 100 units/ml of penicilin and […] of streptomycin at 37° C. in CO2/air (1:19).
(§5) Cells (1×10^5 cells/well) were seeded in 12-well plates and were allowed to grow overnight.
(§6) The complex of cationic amphiphile/helper lipid (1:1) with pCMV GFP was prepared at the charge ratio 2.5:1 (15 nmol lipid and 1 μg DNA), in 100 μl 10 mM HEPES (pH=7.4, 150 mM NaCl). After 10-15 min incubation at room temperature, the resulting complex was diluted in 1 ml medium (DMEM) and 0.5 ml of the mixture was added to the cells and incubated for 4 h at 37° C. The transfection efficiency expressed as a percentage of GFP positive cells was measured by FACS (Fluorescence Activated Cell Soorting) 48 hours after the transfection.
(§7) Control wells underwent identical steps except that no cationic amphiphile was added.

COS-7 and HepG2 cells [2] = experiment: Cell survival after transfection (cell line not given); conditions: cell line and helper lipid not given; for % surv / % surv mean: Table 11
Procedure: as §1, §4, §5, §6, §7

HepG2 [3] = experiment: Transfection with pCMV GFP plasmid, % GFP positive cells by FACS (Table 3); conditions: HepG2, DOPE
Procedure: as §1, §2, §3, §4, §5, §6, §7

HepG2 [4] = experiment: Cell survival after transfection (Table 3); conditions: HepG2, DOPE; note: tested at 6.8 µM
Procedure: as §1, §4, §5, §6, §7
Throughout, for % surv mean: tested at 6.8 µM.

| SMILES | % TE (COS-7 and HepG2 cells [1]; Table 4) | % TE (COS-7 and HepG2 cells [1]; Table 6) | % surv cells (COS-7 and HepG2 cells [2]; Table 4) | % surv cells (COS-7 and HepG2 cells [2]; Table 6) | % TE (HepG2 [3]; first value) | % TE mean (HepG2 [3]) | % TE (HepG2 [3]; second value) | % surv cells (HepG2 [4]; first value) | % surv cells Mean (HepG2 [4]) | % surv cells (HepG2 [4]; second value) | % TE (COS-7 and HepG2 cells [1]; Table 5) | % TE (COS-7 and HepG2 cells [1]; Table 11, first value) | % TE mean (COS-7 and HepG2 cells [1]; Table 11) | % TE (COS-7 and HepG2 cells [1]; Table 11, second value) | % surv cells (COS-7 and HepG2 cells [2]; Table 5) | % surv (COS-7 and HepG2 cells [2]; first value) | % surv mean (COS-7 and HepG2 cells [2]) | % surv (COS-7 and HepG2 cells [2]; second value) | also measured |
| --- | --- | --- | --- | --- | --- | --- | --- | --- | --- | --- | --- | --- | --- | --- | --- | --- | --- | --- | --- |
| CCCCCCCCCCCCCCCC[n+]1ccc(CCCCCCCCCCCCC)cc1.[Cl-] [SF36, 1-hexadecyl-4-tridecyl-pyridinium Chloride] | – | – | – | – | – | – | – | – | – | – | – | – | – | – | – | – | – | – | % TE (COS-7 and HepG2 cells [1]; Table 1): 1.39%; % TE (COS-7 and HepG2 cells [1]; Table 2): 15.06%; % TE (COS-7 and HepG2 cells [1]; Table 7): 25.36%; % TE (COS-7 and HepG2 cells [1]; Table 8): 4.46%; % TE (COS-7 and HepG2 cells [1]; Table 9): 2.73%; % TE (COS-7 and HepG2 cells [1]; Table 10): 1.75%; % surv cells (COS-7 and HepG2 cells [2]; Table 1): 76.77%; % surv cells (COS-7 and HepG2 cells [2]; Table 2): 36.8%; % surv cells (COS-7 and HepG2 cells [2]; Table 7): 84.28%; % surv cells (COS-7 and HepG2 cells [2]; Table 8): 64.88%; % surv cells (COS-7 and HepG2 cells [2]; Table 9): 63.36%; % surv cells (COS-7 and HepG2 cells [2]; Table 10): 37.75% |
| CCCCCCCCCCCCCCCCCC[n+]1ccc(CCCCCCCCCCCCC)cc1.[Cl-] [SF37, 1-stearyl-4-tridecyl-pyridinium Chloride] | – | – | – | – | – | – | – | – | – | – | – | – | – | – | – | – | – | – | % TE (COS-7 and HepG2 cells [1]; Table 1): 4.4%; % TE (COS-7 and HepG2 cells [1]; Table 2): 18.39%; % TE (COS-7 and HepG2 cells [1]; Table 7): 8.5%; % TE (COS-7 and HepG2 cells [1]; Table 8): 5.02%; % TE (COS-7 and HepG2 cells [1]; Table 9): 2.95%; % TE (COS-7 and HepG2 cells [1]; Table 10): 2.74%; % surv cells (COS-7 and HepG2 cells [2]; Table 1): 70.04%; % surv cells (COS-7 and HepG2 cells [2]; Table 2): 41.67%; % surv cells (COS-7 and HepG2 cells [2]; Table 7): 75.65%; % surv cells (COS-7 and HepG2 cells [2]; Table 8): 70.7%; % surv cells (COS-7 and HepG2 cells [2]; Table 9): 64.58%; % surv cells (COS-7 and HepG2 cells [2]; Table 10): 63.85% |
| CCCCCCCC/C=C\CCCCCCCC[n+]1ccc(C)cc1.[Cl-] [SF38, 1-(9′-cis-octadecenyl)-4-methyl-pyridinium Chloride] | 5.43% | 0.47% | 63.19% | 94.13% | 0.82% | 0.555% | 0.29% | 23.6% | 22.05% | 20.5% | – | – | – | – | – | – | – | – | – |
| CCCCCCCC/C=C\CCCCCCCC[n+]1ccc(CCC)cc1.[Cl-] [SF39, 1-(9′-cis-octadecenyl)-4-propyl-pyridinium Chloride] | 4.38% | 0.84% | 66.48% | 92.2% | 0.1% | 0.085% | 0.07% | 24.55% | 28.015% | 31.48% | – | – | – | – | – | – | – | – | – |
| CCCCCCCC/C=C\CCCCCCCC[n+]1ccc(CCCCC)cc1.[Cl-] [SF40, 1-(9′-cis-octadecenyl)-4-pentyl-pyridinium Chloride] | 5.18% | 0.16% | 69.87% | 94.54% | 0.04% | 0.09% | 0.14% | 30.55% | 30.09% | 29.63% | – | – | – | – | – | – | – | – | – |
| CCCCCCCC/C=C\CCCCCCCC[n+]1ccc(CCCCCCC)cc1.[Cl-] [SF41, 1-(9′-cis-octadecenyl)-4-heptyl-pyridinium Chloride] | 7.13% | 3.44% | 60.54% | 89.11% | 0.07% | 0.085% | 0.1% | 28.65% | 34.62% | 40.59% | – | – | – | – | – | – | – | – | – |
| CCCCCCCC/C=C\CCCCCCCC[n+]1ccc(CCCCCCCCC)cc1.[Cl-] [SF42, 1-(9′-cis-octadecenyl)-4-nonyl-pyridinium Chloride] | 5.05% | 5.13% | 70.14% | 93.49% | 1.2% | 0.925% | 0.65% | 40.1% | 33.785% | 27.47% | 0.81% | 8.41% | 7.95% | 7.49% | 75.02% | 86.37% | 84.435% | 82.5% | – |
| CCCCCCCC/C=C\CCCCCCCC[n+]1ccc(CCCCCCCCCCC)cc1 [SF43, 1-(9′-cis-octadecenyl)-4-undecyl-pyridinium Chloride] | 9.18% | 10.22% | 68.12% | 86.86% | 5.71% | 5.805% | 5.9% | 52.11% | 53.845% | 55.58% | 0.55% | 24.6% | 24.2% | 23.8% | 85.51% | 85.42% | 84.395% | 83.37% | – |
| CCCCCCCC/C=C\CCCCCCCC[n+]1ccc(CCCCCCCCCCCCCCC)cc1.[Cl-] [SF44, 1-(9′-cis-octadecenyl)-4-pentadecyl-pyridinium Chloride] | 10.13% | 8.89% | 66.51% | 93.99% | 12.53% | 11.185% | 9.84% | 45.21% | 49.18% | 53.15% | 1.64% | 9.1% | 8.67% | 8.24% | 92.1% | 90.36% | 88.91% | 87.46% | – |
| CCCCCCCC/C=C\CCCCCCCC[n+]1ccc(CCCCCCCCCCCCCCCCC)cc1.[Cl-] [SF45, 1-(9′-cis-octadecenyl)-4-(heptadecyl) pyridinium Chloride] | 9.71% | 5.35% | 67.4% | 92.61% | 8.93% | 6.465% | 4% | 40.24% | 31.565% | 22.89% | 3.38% | 0.27% | 0.15% | 0.03% | 93.02% | 90.01% | 87.55% | 85.09% | – |
| CCCCCCCC/C=C\CCCCCCCCCc1cc[n+](CCCCCCCCCCCCCCCCCC)cc1.[Cl-] [SF46, 1-stearyl-4-(10′-cis-nonadecenyl)-pyridinium Chloride] | 9.17% | 1.11% | 72.57% | 93.55% | 11.65% | 9.07% | 6.49% | 16.79% | 15.445% | 14.1% | 2.71% | 10.6% | 10.6% | – | 76.34% | 87.02% | 87.02% | – | – |
| CCCCCCCCCCCCOC(=O)c1cc[n+](CCCCCCCCCCCC)cc1.[Cl-] [SF53, 1-dodecyl-4-(-carbo-(dodecyloxy)) pyridinium Chloride] | 9.04% | 0.56% | 65.91% | 91.74% | 2.13% | 2.13% | – | 37.51% | 37.51% | – | 0.71% | 6.67% | 6.67% | – | 91.6% | 84.51% | 84.51% | – | – |
